Experimental data as given in patent US20230085307A1, “PYRIDAZINONE COMPOUND AND HERBICIDE” (NISSAN CHEMICAL CORPORATION, priority 2019, published 2023).

Assays:
wild oat = experiment: Test Example 4: herbicidal effect by soil treatment (Table 19, symbol I); format: in vivo, wild oat (Avena fatua); details: amount of applied herbicide 320 g/ha
Outline: (§1)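 Applied as a water-diluted emulsion, the compound was sprayed onto soil covering newly sown seeds. Evaluation came three weeks after application, in a greenhouse held at 25° C. to 30° C.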

blackgrass [1] = experiment: Test Example 5: herbicidal effect by foliage application, plastic box (Table 20, symbol J); format: in vivo, blackgrass (Alopecurus myosuroides); details: foliage application, 320 g/ha, three weeks after application
Outline: (§2)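 Sow seeds spot-wise in sterilized diluvial soil; cover with ~1.5 cm soil. Grow 14 days in greenhouse, 25° C. to 30° C. Spray foliage with emulsion diluted to predetermined amount. Rate effect after 3 weeks.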

barnyard grass = experiment: Test Example 4: herbicidal effect by soil treatment (Table 19, symbol H); format: in vivo, barnyard grass (Echinochloa crus-galli); details: amount of applied herbicide 320 g/ha
Outline: as §1

blackgrass [2] = experiment: Test Example 4: herbicidal effect by soil treatment (Table 19, symbol J); format: in vivo, blackgrass (Alopecurus myosuroides); details: amount of applied herbicide 320 g/ha
Outline: as §1

persian speedwell [3] = experiment: Test Example 5: herbicidal effect by foliage application, plastic box (Table 20, symbol R); format: in vivo, Persian speedwell (Veronica persica); details: foliage application, 320 g/ha, three weeks after application
Outline: as §2

southern crabgrass [4] = experiment: Test Example 4: herbicidal effect by soil treatment (Table 19, symbol F); format: in vivo, southern crabgrass (Digitaria ciliaris); details: amount of applied herbicide 320 g/ha
Outline: as §1

persian speedwell [5] = experiment: Test Example 4: herbicidal effect by soil treatment (Table 19, symbol R); format: in vivo, Persian speedwell (Veronica persica); details: amount of applied herbicide 320 g/ha
Outline: as §1

Japanese bulrush [6] = experiment: Test Example 2: herbicidal activity, application during weed generation under submerged conditions (Table 17, symbol B); format: in vivo, Japanese bulrush (Schoenoplectus juncoides); details: AAH 320 g/ha; application during weed generation, submerged conditions
Outline: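 Herbicide emulsion, diluted with water to the chosen amount, is applied onto 4 cm floodwater over alluvial soil where the weeds were co-sown and raised at 25–30° C. Application timing: 1–2 leaves. Assessment: three weeks afterwards.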

southern crabgrass [7] = experiment: Test Example 5: herbicidal effect by foliage application, plastic box (Table 20, symbol F); format: in vivo, southern crabgrass (Digitaria ciliaris); details: foliage application, 320 g/ha, three weeks after application
Outline: as §2

Italian ryegrass [8] = experiment: Test Example 5: herbicidal effect by foliage application, plastic box (Table 20, symbol K); format: in vivo, Italian ryegrass (Lolium multiflorum); details: foliage application, 320 g/ha, three weeks after application
Outline: as §2

chickweed [9] = experiment: Test Example 5: herbicidal effect by foliage application, plastic box (Table 20, symbol P); format: in vivo, common chickweed (Stellaria media); details: foliage application, 320 g/ha, three weeks after application
Outline: as §2

rice flat sedge = experiment: Test Example 3: herbicidal effect by foliage application, Wagner pot (Table 18, symbol E); format: in vivo, rice flat sedge (Cyperus iria); details: 320 g/ha
Outline: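 Plants were sown in alluvial soil held under 0.1–0.5 cm standing water and grown 14 days in a greenhouse at 25–30 °C. An emulsifiable formulation, water-diluted to the set dose, was then sprayed onto the foliage, and effects were scored three weeks later using previously defined criteria.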

oval-leafed pondweed = experiment: Test Example 1: herbicidal activity, application before weed generation under submerged conditions (Table 16, symbol C); format: in vivo, oval-leafed pondweed (Monochoria vaginalis); details: amount of applied herbicide 320 g/ha
Outline: (§3)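 Submerged Wagner pots (alluvial soil, 4 cm water) sown with weed seeds and planted with 2.5-leaf rice seedlings; emulsifiable concentrate diluted in water applied to water surface on sowing day. Held in greenhouse at 25-30 °C; injury scored 0-5 by herbicidal rate after three weeks.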

chickweed [10] = experiment: Test Example 4: herbicidal effect by soil treatment (Table 19, symbol P); format: in vivo, common chickweed (Stellaria media); details: amount of applied herbicide 320 g/ha
Outline: as §1

lambsquarters = experiment: Test Example 4: herbicidal effect by soil treatment (Table 19, symbol O); format: in vivo, lambsquarters (Chenopodium album); details: amount of applied herbicide 320 g/ha
Outline: as §1

Japanese bulrush [11] = experiment: Test Example 1: herbicidal activity, application before weed generation under submerged conditions (Table 16, symbol B); format: in vivo, Japanese bulrush (Schoenoplectus juncoides); details: amount of applied herbicide 320 g/ha
Outline: as §3

Italian ryegrass [12] = experiment: Test Example 4: herbicidal effect by soil treatment (Table 19, symbol K); format: in vivo, Italian ryegrass (Lolium multiflorum); details: amount of applied herbicide 320 g/ha
Outline: as §1

| Compound | I: wild oat, herbicidal effect grade (wild oat) | J: blackgrass, herbicidal effect grade (blackgrass [1]) | H: barnyard grass, herbicidal effect grade (barnyard grass) | J: blackgrass, herbicidal effect grade (blackgrass [2]) | R: persian speedwell, herbicidal effect grade (persian speedwell [3]) | F: southern crabgrass, herbicidal effect grade (southern crabgrass [4]) | R: persian speedwell, herbicidal effect grade (persian speedwell [5]) | herbicidal effect rating, B: Japanese bulrush (Japanese bulrush [6]) | F: southern crabgrass, herbicidal effect grade (southern crabgrass [7]) | K: Italian ryegrass, herbicidal effect grade (Italian ryegrass [8]) | P: chickweed, herbicidal effect grade (chickweed [9]) | herbicidal effect on rice flat sedge (E) (rice flat sedge) | Herbicidal effect, C: oval-leafed pondweed (oval-leafed pondweed) | P: chickweed, herbicidal effect grade (chickweed [10]) | O: lambsquarters, herbicidal effect grade (lambsquarters) | Herbicidal effect, B: Japanese bulrush (Japanese bulrush [11]) | K: Italian ryegrass, herbicidal effect grade (Italian ryegrass [12]) |
| --- | --- | --- | --- | --- | --- | --- | --- | --- | --- | --- | --- | --- | --- | --- | --- | --- | --- |
| CCCC(=O)Oc1c(C)nn(C)c(=O)c1-c1c(-c2ccc(F)cc2OCC)sc2cc(OC)ccc12 [3-079] | 0 (Herbicidal rate of 5% or less (almost no effect)) | 4 (Herbicidal rate of 70% or more and less than 90%) | 0 (Herbicidal rate of 5% or less (almost no effect)) | 2 (Herbicidal rate of 20% or more and less than 40%) | 5 (Herbicidal rate of 90% or more (almost completely withered)) | 4 (Herbicidal rate of 70% or more and less than 90%) | 5 (Herbicidal rate of 90% or more (almost completely withered)) | 5 (Herbicidal rate of 90% or more (almost completely withered)) | 5 (Herbicidal rate of 90% or more (almost completely withered)) | 4 (Herbicidal rate of 70% or more and less than 90%) | 5 (Herbicidal rate of 90% or more (almost completely withered)) | 5 (Herbicidal rate of 90% or more (almost completely withered)) | 5 (Herbicidal rate of 90% or more (almost completely withered)) | 4 (Herbicidal rate of 70% or more and less than 90%) | 3 (Herbicidal rate of 40% or more and less than 70%) | 5 (Herbicidal rate of 90% or more (almost completely withered)) | 0 (Herbicidal rate of 5% or less (almost no effect)) |
| COc1ccc2c(-c3c(O)c(C)nn(C)c3=O)c(-c3ccc4c(c3)OCCO4)sc2c1 [3-082] | 0 (Herbicidal rate of 5% or less (almost no effect)) | 1 (Herbicidal rate of 5% or more and less than 20%) | 0 (Herbicidal rate of 5% or less (almost no effect)) | 0 (Herbicidal rate of 5% or less (almost no effect)) | 5 (Herbicidal rate of 90% or more (almost completely withered)) | 0 (Herbicidal rate of 5% or less (almost no effect)) | 5 (Herbicidal rate of 90% or more (almost completely withered)) | 1 (Herbicidal rate of 5% or more and less than 20%) | 0 (Herbicidal rate of 5% or less (almost no effect)) | 3 (Herbicidal rate of 40% or more and less than 70%) | 5 (Herbicidal rate of 90% or more (almost completely withered)) | 5 (Herbicidal rate of 90% or more (almost completely withered)) | 4 (Herbicidal rate of 70% or more and less than 90%) | 4 (Herbicidal rate of 70% or more and less than 90%) | 0 (Herbicidal rate of 5% or less (almost no effect)) | 5 (Herbicidal rate of 90% or more (almost completely withered)) | 0 (Herbicidal rate of 5% or less (almost no effect)) |
| CCCC(=O)Oc1c(C)nn(C)c(=O)c1-c1c(-c2ccc3c(c2)OCCO3)sc2cc(OC)ccc12 [3-083] | 0 (Herbicidal rate of 5% or less (almost no effect)) | 0 (Herbicidal rate of 5% or less (almost no effect)) | 3 (Herbicidal rate of 40% or more and less than 70%) | 0 (Herbicidal rate of 5% or less (almost no effect)) | 5 (Herbicidal rate of 90% or more (almost completely withered)) | 0 (Herbicidal rate of 5% or less (almost no effect)) | 5 (Herbicidal rate of 90% or more (almost completely withered)) | 3 (Herbicidal rate of 40% or more and less than 70%) | 3 (Herbicidal rate of 40% or more and less than 70%) | 1 (Herbicidal rate of 5% or more and less than 20%) | 5 (Herbicidal rate of 90% or more (almost completely withered)) | 4 (Herbicidal rate of 70% or more and less than 90%) | 4 (Herbicidal rate of 70% or more and less than 90%) | 5 (Herbicidal rate of 90% or more (almost completely withered)) | 3 (Herbicidal rate of 40% or more and less than 70%) | 4 (Herbicidal rate of 70% or more and less than 90%) | 0 (Herbicidal rate of 5% or less (almost no effect)) |
| CCOc1ccc2c(-c3c(O)c(C)nn(C)c3=O)c(-c3ccccc3OC)sc2c1 [3-089] | 1 (Herbicidal rate of 5% or more and less than 20%) | 5 (Herbicidal rate of 90% or more (almost completely withered)) | 4 (Herbicidal rate of 70% or more and less than 90%) | 4 (Herbicidal rate of 70% or more and less than 90%) | 5 (Herbicidal rate of 90% or more (almost completely withered)) | 5 (Herbicidal rate of 90% or more (almost completely withered)) | 5 (Herbicidal rate of 90% or more (almost completely withered)) | 5 (Herbicidal rate of 90% or more (almost completely withered)) | 4 (Herbicidal rate of 70% or more and less than 90%) | 5 (Herbicidal rate of 90% or more (almost completely withered)) | 5 (Herbicidal rate of 90% or more (almost completely withered)) | 5 (Herbicidal rate of 90% or more (almost completely withered)) | 5 (Herbicidal rate of 90% or more (almost completely withered)) | 4 (Herbicidal rate of 70% or more and less than 90%) | 4 (Herbicidal rate of 70% or more and less than 90%) | 5 (Herbicidal rate of 90% or more (almost completely withered)) | 4 (Herbicidal rate of 70% or more and less than 90%) |
